Assay results from ChEMBL document CHEMBL1629583, “Establishment of in vitro susceptibility testing methodologies and comparative activities of piperacillin in combination with the penem {beta}-lactamase inhibitor BLI-489” (2009).
Values after ≈ are worked out from the molar mass of the structure shown.

How the values were obtained:
Format in all cases: functional
Acinetobacter junii = assay: Antimicrobial activity against Acinetobacter junii clinical isolate after 18 to 22 hrs by broth microdilution method
Citrobacter freundii [1] = assay: Antimicrobial activity against Citrobacter freundii clinical isolate after 18 to 22 hrs by broth microdilution method
Enterobacter cloacae [2] = assay: Antimicrobial activity against Enterobacter cloacae clinical isolate after 18 to 22 hrs by broth microdilution method
Acinetobacter johnsonii = assay: Antimicrobial activity against Acinetobacter johnsonii clinical isolate after 18 to 22 hrs by broth microdilution method
Clostridium perfringens = assay: Antimicrobial activity against Clostridium perfringens clinical isolate after 18 to 22 hrs by broth microdilution method
Burkholderia cepacia = assay: Antimicrobial activity against Burkholderia cepacia clinical isolate after 18 to 22 hrs by broth microdilution method
Klebsiella pneumoniae [3] = assay: Antimicrobial activity against AmpC- producing Klebsiella pneumoniae clinical isolate after 18 to 22 hrs by broth microdilution method
Bacteroides uniformis = assay: Antimicrobial activity against Bacteroides uniformis clinical isolate after 18 to 22 hrs by broth microdilution method
Bacteroides fragilis = assay: Antimicrobial activity against Bacteroides fragilis clinical isolate after 18 to 22 hrs by broth microdilution method
Klebsiella aerogenes [4] = assay: Antimicrobial activity against Enterobacter aerogenes clinical isolate after 18 to 22 hrs by broth microdilution method
Klebsiella pneumoniae [5] = assay: Antimicrobial activity against class A extended spectrum beta-lactamase- producing Klebsiella pneumoniae clinical isolate after 18 to 22 hrs by broth microdilution method
Moraxella catarrhalis = assay: Antimicrobial activity against Moraxella catarrhalis clinical isolate after 18 to 22 hrs by broth microdilution method
Proteus mirabilis = assay: Antimicrobial activity against Proteus mirabilis clinical isolate after 18 to 22 hrs by broth microdilution method
Escherichia coli [6] = assay: Antimicrobial activity against class A extended spectrum beta-lactamase- producing Escherichia coli clinical isolate after 18 to 22 hrs by broth microdilution method
Escherichia coli [7] = assay: Antimicrobial activity against class A extended spectrum beta-lactamase- and class D OXA- producing Escherichia coli clinical isolate after 18 to 22 hrs by broth microdilution method
Klebsiella pneumoniae [8] = assay: Antimicrobial activity against class A extended spectrum beta-lactamase- and class D OXA- producing Klebsiella pneumoniae clinical isolate after 18 to 22 hrs by broth microdilution method
Proteus vulgaris = assay: Antimicrobial activity against Proteus vulgaris clinical isolate after 18 to 22 hrs by broth microdilution method
Klebsiella pneumoniae [9] = assay: Antimicrobial activity against Klebsiella pneumoniae clinical isolate after 18 to 22 hrs by broth microdilution method
Pseudomonas aeruginosa = assay: Antimicrobial activity against Pseudomonas aeruginosa clinical isolate after 18 to 22 hrs by broth microdilution method
[10] = test system: Bacteroides thetaiotaomicron; assay: Antimicrobial activity against Bacteroides thetaiotaomicron clinical isolate after 18 to 22 hrs by broth microdilution method
[11] = test system: Acinetobacter calcoaceticus; assay: Antimicrobial activity against Acinetobacter calcoaceticus clinical isolate after 18 to 22 hrs by broth microdilution method
Acinetobacter baumannii = assay: Antimicrobial activity against Acinetobacter baumannii clinical isolate after 18 to 22 hrs by broth microdilution method
Escherichia coli [12] = assay: Antimicrobial activity against AmpC beta-lactamase-producing Escherichia coli clinical isolate after 18 to 22 hrs by broth microdilution method
Enterobacter cloacae [13] = assay: Antimicrobial activity against AmpC beta-lactamase-producing Enterobacter cloacae clinical isolate after 18 to 22 hrs by broth microdilution method
Providencia rettgeri = assay: Antimicrobial activity against Providencia rettgeri clinical isolate after 18 to 22 hrs by broth microdilution method
Serratia marcescens [14] = assay: Antimicrobial activity against Serratia marcescens clinical isolate after 18 to 22 hrs by broth microdilution method
Serratia marcescens [15] = assay: Antimicrobial activity against AmpC beta-lactamase-producing Serratia marcescens clinical isolate after 18 to 22 hrs by broth microdilution method
Klebsiella oxytoca = assay: Antimicrobial activity against Klebsiella oxytoca clinical isolate after 18 to 22 hrs by broth microdilution method
Citrobacter koseri = assay: Antimicrobial activity against Citrobacter koseri clinical isolate after 18 to 22 hrs by broth microdilution method
Citrobacter freundii [16] = assay: Antimicrobial activity against AmpC beta-lactamase-producing Citrobacter freundii clinical isolate after 18 to 22 hrs by broth microdilution method
[17] = test system: Peptostreptococcus anaerobius; assay: Antimicrobial activity against Peptostreptococcus anaerobius clinical isolate after 18 to 22 hrs by broth microdilution method
Haemophilus influenzae [18] = assay: Antimicrobial activity against beta-lactamase-negative Haemophilus influenzae clinical isolate after 18 to 22 hrs by broth microdilution method
Providencia stuartii = assay: Antimicrobial activity against Providencia stuartii clinical isolate after 18 to 22 hrs by broth microdilution method
Acinetobacter lwoffii = assay: Antimicrobial activity against Acinetobacter lwoffii clinical isolate after 18 to 22 hrs by broth microdilution method
Parvimonas micra = assay: Antimicrobial activity against Peptostreptococcus micros clinical isolate after 18 to 22 hrs by broth microdilution method
[19] = test system: Acinetobacter haemolyticus; assay: Antimicrobial activity against Acinetobacter haemolyticus clinical isolate after 18 to 22 hrs by broth microdilution method
Klebsiella aerogenes [20] = assay: Antimicrobial activity against AmpC beta-lactamase-producing Enterobacter aerogenes clinical isolate after 18 to 22 hrs by broth microdilution method
[21] = test system: Haemophilus parainfluenzae; assay: Antimicrobial activity against Haemophilus parainfluenzae clinical isolate after 18 to 22 hrs by broth microdilution method
Morganella morganii = assay: Antimicrobial activity against Morganella morganii clinical isolate after 18 to 22 hrs by broth microdilution method
Haemophilus influenzae [22] = assay: Antimicrobial activity against beta-lactamase-producing Haemophilus influenzae clinical isolate after 18 to 22 hrs by broth microdilution method
[23] = test system: Stenotrophomonas maltophilia; assay: Antimicrobial activity against Stenotrophomonas maltophilia clinical isolate after 18 to 22 hrs by broth microdilution method

In the case of `C[C@@H](O)[C@H]1C(=O)N2C(C(=O)O)=C(SCCNC=N)C[C@H]12` [IMIPENEM ANHYDROUS], the MIC50 (Acinetobacter junii) is reported as 0.06 µg/mL (≈ 0.2 µM), the MIC90 (Acinetobacter junii) is reported as 0.5 µg/mL (≈ 1.67 µM) and the MIC50 (Citrobacter freundii [1]) is reported as 1 µg/mL (≈ 3.34 µM). For the same compound, the MIC90 (Citrobacter freundii [1]) was 1 µg/mL (≈ 3.34 µM), the MIC50 (Enterobacter cloacae [2]) was 0.5 µg/mL (≈ 1.67 µM) and the MIC90 (Enterobacter cloacae [2]) was 1 µg/mL (≈ 3.34 µM). It also gave an MIC50 (Acinetobacter johnsonii) of 0.06 µg/mL (≈ 0.2 µM), an MIC90 (Acinetobacter johnsonii) of 0.5 µg/mL (≈ 1.67 µM) and an MIC50 (Clostridium perfringens) of 0.06 µg/mL (≈ 0.2 µM). For the same compound, the MIC90 (Clostridium perfringens) was 0.06 µg/mL (≈ 0.2 µM), the MIC50 (Burkholderia cepacia) was 8 µg/mL (≈ 26.7 µM) and the MIC90 (Burkholderia cepacia) was 16 µg/mL (≈ 53.4 µM). It also gave an MIC50 (Klebsiella pneumoniae [3]) of 1 µg/mL (≈ 3.34 µM), an MIC90 (Klebsiella pneumoniae [3]) of 16 µg/mL (≈ 53.4 µM) and an MIC (Bacteroides uniformis) of 0.12 µg/mL (≈ 0.401 µM). It also gave an MIC50 (Bacteroides uniformis) of 0.12 µg/mL (≈ 0.401 µM), an MIC90 (Bacteroides uniformis) of 0.25 µg/mL (≈ 0.835 µM) and an MIC50 (Bacteroides fragilis) of 0.25 µg/mL (≈ 0.835 µM). It also gave an MIC90 (Bacteroides fragilis) of 0.5 µg/mL (≈ 1.67 µM), an MIC50 (Klebsiella aerogenes [4]) of 1 µg/mL (≈ 3.34 µM) and an MIC90 (Klebsiella aerogenes [4]) of 2 µg/mL (≈ 6.68 µM). The MIC50 (Klebsiella pneumoniae [5]) was 0.25 µg/mL (≈ 0.835 µM), the MIC90 (Klebsiella pneumoniae [5]) was 0.5 µg/mL (≈ 1.67 µM) and the MIC (Moraxella catarrhalis) was at most 0.03 µg/mL. It also gave an MIC50 (Moraxella catarrhalis) of at most 0.03 µg/mL, an MIC90 (Moraxella catarrhalis) of 0.06 µg/mL (≈ 0.2 µM) and an MIC50 (Proteus mirabilis) of 2 µg/mL (≈ 6.68 µM). It also gave an MIC90 (Proteus mirabilis) of 4 µg/mL (≈ 13.4 µM), an MIC (Escherichia coli [6]) of 0.12 µg/mL (≈ 0.401 µM) and an MIC50 (Escherichia coli [6]) of 0.12 µg/mL (≈ 0.401 µM). The MIC90 (Escherichia coli [6]) was 0.5 µg/mL (≈ 1.67 µM), the MIC (Escherichia coli [7]) was 0.12 µg/mL (≈ 0.401 µM) and the MIC50 (Escherichia coli [7]) was 0.12 µg/mL (≈ 0.401 µM). It also gave an MIC90 (Escherichia coli [7]) of 0.25 µg/mL (≈ 0.835 µM), an MIC50 (Klebsiella pneumoniae [8]) of 0.25 µg/mL (≈ 0.835 µM) and an MIC90 (Klebsiella pneumoniae [8]) of 0.5 µg/mL (≈ 1.67 µM). It also gave an MIC50 (Proteus vulgaris) of 2 µg/mL (≈ 6.68 µM), an MIC90 (Proteus vulgaris) of 4 µg/mL (≈ 13.4 µM) and an MIC50 (Klebsiella pneumoniae [9]) of 0.25 µg/mL (≈ 0.835 µM). The MIC90 (Klebsiella pneumoniae [9]) was 0.5 µg/mL (≈ 1.67 µM), the MIC50 (Pseudomonas aeruginosa) was 2 µg/mL (≈ 6.68 µM) and the MIC90 (Pseudomonas aeruginosa) was 32 µg/mL (≈ 107 µM). For the same compound, the MIC [10] was 0.25 µg/mL (≈ 0.835 µM), the MIC50 [10] was 0.25 µg/mL (≈ 0.835 µM) and the MIC90 [10] was 1 µg/mL (≈ 3.34 µM). The MIC50 [11] was 1 µg/mL (≈ 3.34 µM), the MIC90 [11] was 32 µg/mL (≈ 107 µM) and the MIC50 (Acinetobacter baumannii) was 1 µg/mL (≈ 3.34 µM). It also gave an MIC90 (Acinetobacter baumannii) of 32 µg/mL (≈ 107 µM), an MIC (Escherichia coli [12]) of 0.12 µg/mL (≈ 0.401 µM) and an MIC50 (Escherichia coli [12]) of 0.12 µg/mL (≈ 0.401 µM). The MIC90 (Escherichia coli [12]) was 0.25 µg/mL (≈ 0.835 µM), the MIC (Enterobacter cloacae [13]) was 0.5 µg/mL (≈ 1.67 µM) and the MIC50 (Enterobacter cloacae [13]) was 0.5 µg/mL (≈ 1.67 µM). It also gave an MIC90 (Enterobacter cloacae [13]) of 2 µg/mL (≈ 6.68 µM), an MIC50 (Providencia rettgeri) of 2 µg/mL (≈ 6.68 µM) and an MIC90 (Providencia rettgeri) of 2 µg/mL (≈ 6.68 µM). The MIC50 (Serratia marcescens [14]) was 1 µg/mL (≈ 3.34 µM), the MIC90 (Serratia marcescens [14]) was 2 µg/mL (≈ 6.68 µM) and the MIC (Serratia marcescens [15]) was 0.5 µg/mL (≈ 1.67 µM). The MIC50 (Serratia marcescens [15]) was 0.5 µg/mL (≈ 1.67 µM), the MIC90 (Serratia marcescens [15]) was 2 µg/mL (≈ 6.68 µM) and the MIC50 (Klebsiella oxytoca) was 0.25 µg/mL (≈ 0.835 µM). For the same compound, the MIC90 (Klebsiella oxytoca) was 0.5 µg/mL (≈ 1.67 µM), the MIC50 (Citrobacter koseri) was 0.12 µg/mL (≈ 0.401 µM) and the MIC90 (Citrobacter koseri) was 0.12 µg/mL (≈ 0.401 µM). It also gave an MIC (Citrobacter freundii [16]) of 0.5 µg/mL (≈ 1.67 µM), an MIC50 (Citrobacter freundii [16]) of 0.5 µg/mL (≈ 1.67 µM) and an MIC90 (Citrobacter freundii [16]) of 2 µg/mL (≈ 6.68 µM). It also gave an MIC50 [17] of 0.03 µg/mL (≈ 0.1 µM), an MIC90 [17] of 0.06 µg/mL (≈ 0.2 µM) and an MIC (Haemophilus influenzae [18]) of 0.12 µg/mL (≈ 0.401 µM). The MIC50 (Haemophilus influenzae [18]) was 0.05 µg/mL (≈ 0.167 µM), the MIC90 (Haemophilus influenzae [18]) was 1 µg/mL (≈ 3.34 µM) and the MIC50 (Providencia stuartii) was 2 µg/mL (≈ 6.68 µM). It also gave an MIC90 (Providencia stuartii) of 2 µg/mL (≈ 6.68 µM), an MIC50 (Acinetobacter lwoffii) of 0.06 µg/mL (≈ 0.2 µM) and an MIC90 (Acinetobacter lwoffii) of 0.5 µg/mL (≈ 1.67 µM). For the same compound, the MIC50 (Parvimonas micra) was 0.06 µg/mL (≈ 0.2 µM), the MIC90 (Parvimonas micra) was 0.12 µg/mL (≈ 0.401 µM) and the MIC50 [19] was 0.06 µg/mL (≈ 0.2 µM). It also gave an MIC90 [19] of 0.5 µg/mL (≈ 1.67 µM), an MIC (Klebsiella aerogenes [20]) of 0.5 µg/mL (≈ 1.67 µM) and an MIC50 (Klebsiella aerogenes [20]) of 0.5 µg/mL (≈ 1.67 µM). For the same compound, the MIC90 (Klebsiella aerogenes [20]) was 2 µg/mL (≈ 6.68 µM), the MIC50 [21] was 0.25 µg/mL (≈ 0.835 µM) and the MIC90 [21] was 0.5 µg/mL (≈ 1.67 µM). The MIC50 (Morganella morganii) was 4 µg/mL (≈ 13.4 µM), the MIC90 (Morganella morganii) was 4 µg/mL (≈ 13.4 µM) and the MIC50 (Haemophilus influenzae [22]) was 0.5 µg/mL (≈ 1.67 µM). For the same compound, the MIC90 (Haemophilus influenzae [22]) was 0.5 µg/mL (≈ 1.67 µM), the MIC [23] was over 32 µg/mL and the MIC50 [23] was over 32 µg/mL. The MIC90 [23] was over 32 µg/mL.
